Assay results from patent EP3521435A1, “A HIGH STRINGENCY SELECTION SYSTEM FOR PROTEIN EXPRESSION IN PROLINE-AUXOTROPHIC CELLS” (Bayer AG, priority 2018, dated 2019).

What was measured:
CHO-K1 cells [1] = experiment: Batch fermentation in shake flasks of human IgG1 expressing stable cell populations (Poros A-HPLC titer, viable cell density, viability); type: cell-based, Chinese hamster; conditions: pJF1576; for Productivity profile: human IgG1
Description: (§1) To efficiently test the impact of different procedures on improving selection stringency, experimental testing in stable cell populations was performed. As test molecules, enhanced green fluorescent protein (GFP) as well as a human IgG1 were chosen. CHO-K1 cells adapted to growth in suspension in defined medium were obtained from SAFC and cultivated in EX-CELL CD CHO Fusion medium (SAFC 14365C). Custom-made EX-CELL CD CHO Fusion medium without L-Proline (Pro) and without L-Ornithine (Orn) ("proline-free medium") was obtained from SAFC. The expression vector system was based on modified versions of "CET 1019 AS-puro-SceI" and "CET 1019 AD-puro-SceI" for GFP and human IgG1, respectively, from Merck-Millipore, containing the Puromycin selection marker (Puromycin N-acetyl-transferase) known to exert a high selection stringency. To minimize variations in cell populations derived from using different transfections or different vectors, the first series of experiments were conducted using vectors into which a P5CS expression cassette was cloned upstream of a UCOE element, in addition to the Puromycin selection marker present downstream of a gene of interest. This way, it was possible to pool different transfections using the same vector to obtain a common starting point, and split the mixture according to different selection conditions, minimizing any variations that are not due to selection conditions themselves. Expression of long and short isoform of murine P5CS (Protein: Delta-1-pyrroline-5-carboxylate synthase; Gene: Aldh18a1; UniProtKB accession number: Q9Z110-1 & Q9Z110-2) was driven by a SV40 promoter. A SV40 polyadenylation sequence was used at the 3' end of the gene. More details can be found in Table 1. Typically, CHO cells were cultivated in EX-CELL CD CHO Fusion medium containing 6 mM GlutaMAX (Thermo Fisher, 35050-38) ("CD-Fusion medium") at 37 °C with 5% CO2. Cells were grown to logarithmic phase under shaking conditions for transfections. 1e7 cells/cuvette were transfected using nucleofection (Amaxa Nucleofector II, following the manufacturer's recommendations) with 5 µg of linearized DNA. After transfection, cells were taken up in 1 ml medium and transferred into 1 well of a 6 well microtiter plate (MTP) already containing 1 ml medium. The cells were incubated for 24 h without shaking, after which 9 ml medium were added and cells were washed (either in standard or proline-free medium). Multiple transfections were pooled, if applicable. Cells were adjusted to 2e5 viable cells/ml and 10 ml were transferred to T-25 flasks. Reference cell populations were selected using 10 µg/ml Puromycin in CD-Fusion medium. For P5CS-based selection, EX-CELL CD CHO Fusion medium (custom-made, SAFC) containing 6 mM GlutaMAX without proline and without ornithine was used ("proline-free" or "CD-Fusion w/o Pro" medium), with or without additional selection pressure.
(§2) Cell viability of the different populations was monitored over time. As soon as cell populations appeared to recover from selection pressure, cells were transferred to Shake Flask or TubeSpins for expansion in suspension under shaking conditions. Subsequently, stable cell populations transfected with IgG were seeded at 2e5 viable cells/ml for batch fermentation without selection pressure (i.e. standard CD-Fusion medium containing proline and no other selective agents). The cells were cultivated for 5-10 days, viable cell densities and productivity were monitored over time. IgG titers were determined using Poros A-HPLC method. Typically, final batch titers were recorded at a time point at which majority of cultures had around 70% viability. Stable cell populations transfected with GFP vector were subjected to analysis by flow cytometry using Guava easyCyte 8HT Benchtop Flow Cytometer (Millipore). 250 µl of cell culture were transferred to 96 MTP and washed with PBS. Dead cells were excluded from analysis using propidium iodide (PI). […]

CHO-K1 cells [2] = experiment: Flow cytometric analysis of GFP expression (MFI, high fluorescing cells) in stably selected cell populations; type: cell-based, Chinese hamster; conditions: for improvement of MFI as compared to Puromycin selected cultures / increase of the frequency of high fluorescing cells as compared to Puromycin selected cultures: DHP in proline-free medium
Description: as §1, §2

[3] = Day 7 after inoculation, selected in CD-Fusion w/o Pro + 0.2 mM DHP, non-selecting conditions
[4] = Day 7 after inoculation, selected in CD-Fusion w/o Pro + 0.2 mM DHP, selective conditions
[5] = Day 7 after inoculation, selected in CD-Fusion w/o Pro + 0.4 mM DHP, non-selecting conditions
[6] = Day 7 after inoculation, selected in CD-Fusion w/o Pro + 0.4 mM DHP, selective conditions
[7] = Day 9 after inoculation, selected in CD-Fusion w/o Pro + 0.05 mM DHP, non-selecting conditions
[8] = Day 9 after inoculation, selected in CD-Fusion w/o Pro + 0.1 mM DHP, non-selecting conditions
[9] = Day 9 after inoculation, selected in CD-Fusion w/o Pro + 0.2 mM DHP, non-selecting conditions
[10] = Day 9 after inoculation, selected in CD-Fusion w/o Pro + 0.4 mM DHP, non-selecting conditions
[11] = Table 11, day 19 post-transfection, pJF1555, CD-Fusion w/o Pro + 0.2 mM DHP
[12] = Table 13, day 19 post-transfection, pJF1555, CD-Fusion w/o Pro + 0.05 mM DHP
[13] = Table 13, day 19 post-transfection, pJF1555, CD-Fusion w/o Pro + 0.1 mM DHP
[14] = Table 13, day 19 post-transfection, pJF1555, CD-Fusion w/o Pro + 0.2 mM DHP
[15] = Table 13, day 19 post-transfection, pJF1555, CD-Fusion w/o Pro + 0.4 mM DHP
[16] = day 22 post-transfection, pJF2055, CD-Fusion w/o Pro + 0.02 mM DHP
[17] = day 22 post-transfection, pJF2055, CD-Fusion w/o Pro + 0.03 mM DHP
[18] = day 22 post-transfection, pJF2055, CD-Fusion w/o Pro + 0.04 mM DHP
[19] = day 22 post-transfection, pJF2055, CD-Fusion w/o Pro + 0.06 mM DHP
[20] = day 22 post-transfection, pJF2055, CD-Fusion w/o Pro + 0.07 mM DHP
[21] = day 22 post-transfection, pJF2055, CD-Fusion w/o Pro + 0.08 mM DHP
[22] = day 22 post-transfection, pJF2303, CD-Fusion w/o Pro + 0.02 mM DHP
[23] = day 22 post-transfection, pJF2303, CD-Fusion w/o Pro + 0.04 mM DHP
[24] = day 22 post-transfection, pJF2303, CD-Fusion w/o Pro + 0.06 mM DHP
[25] = day 22 post-transfection, pJF2303, CD-Fusion w/o Pro + 0.08 mM DHP
[26] = day 22 post-transfection, pJF2303, CD-Fusion w/o Pro + 0.2 mM DHP
[27] = day 22 post-transfection, pJF2303, CD-Fusion w/o Pro + 0.3 mM DHP
[28] = day 22 post-transfection, pJF2303, CD-Fusion w/o Pro + 0.4 mM DHP
[29] = day 22 post-transfection, pJF2303, CD-Fusion w/o Pro + 0.5 mM DHP
[30] = day 29 post-transfection, pJF2460, CD-Fusion w/o Pro + 0.01 mM DHP
[31] = day 29 post-transfection, pJF2460, CD-Fusion w/o Pro + 0.03 mM DHP

Structure (SMILES): O=C(O)[C@@H]1C=CCN1 [DHP, 3,4-Dehydro-L-Proline]
- Viable cell density profile (CHO-K1 cells [1]; Day 7 after inoculation, selected in CD-Fusion w/o Pro + 0.1 mM DHP, selective conditions): 4.0E+06 VCD/ml
- Viability profile (CHO-K1 cells [1]; [3]): 97.4%
- Viable cell density profile (CHO-K1 cells [1]; [3]): 9,6E+06 VCD/ml
- Viability profile (CHO-K1 cells [1]; [4]): 93.2%
- Viable cell density profile (CHO-K1 cells [1]; [4]): 9.1E+06 VCD/ml
- Viability profile (CHO-K1 cells [1]; [5]): 98.1%
- Viable cell density profile (CHO-K1 cells [1]; [5]): 1,1E+07 VCD/ml
- Viability profile (CHO-K1 cells [1]; [6]): 56.1%
- Viable cell density profile (CHO-K1 cells [1]; [6]): 6.9E+06 VCD/ml
- Productivity profile (CHO-K1 cells [1]; [7]): 115.5 mg/L
- Productivity profile (CHO-K1 cells [1]; [8]): 127.1 mg/L
- Productivity profile (CHO-K1 cells [1]; [9]): 153.7 mg/L
- Productivity profile (CHO-K1 cells [1]; [10]): 164.7 mg/L
- Viability profile (CHO-K1 cells [1]; [7]): 19.5%
- Viable cell density profile (CHO-K1 cells [1]; [7]): 2,5E+06 VCD/ml
- Viability profile (CHO-K1 cells [1]; [8]): 5.1%
- Viable cell density profile (CHO-K1 cells [1]; [8]): 6,4E+05 VCD/ml
- Viability profile (CHO-K1 cells [1]; [9]): 18.7%
- Viable cell density profile (CHO-K1 cells [1]; [9]): 2,2E+06 VCD/ml
- Viability profile (CHO-K1 cells [1]; [10]): 21.7%
- Viable cell density profile (CHO-K1 cells [1]; [10]): 3,1E+06 VCD/ml
- increase in MFI as compared to Puromycin-selected population (CHO-K1 cells [2]; 0.2 mM DHP in proline-free medium, pJF1555, #4 vs #1 of Table 11): 37%
- increase of the frequency of high fluorescing cells (CHO-K1 cells [2]; 0.2 mM DHP in proline-free medium, pJF1555, vs Puromycin-selected population): 71%
- improvement of MFI of the stable cell population (CHO-K1 cells [2]; 0.4 mM DHP, pJF1555, Table 13): 3 fold
- increase of the frequency of high fluorescing cells (CHO-K1 cells [2]; 0.4 mM DHP, pJF1555, Table 13): 8.7-12.6 fold
- Frequency of high fluorescing cells (CHO-K1 cells [2]; [11]): 5.8%
- Median Fluorescence Intensity (MFI) (yellow) (CHO-K1 cells [2]; [11]): 17880
- Frequency of high fluorescing cells (CHO-K1 cells [2]; [12]): 1.7%
- Median Fluorescence Intensity (MFI) (yellow) (CHO-K1 cells [2]; [12]): 7599
- Frequency of high fluorescing cells (CHO-K1 cells [2]; [13]): 5.6%
- Median Fluorescence Intensity (MFI) (yellow) (CHO-K1 cells [2]; [13]): 14267
- Frequency of high fluorescing cells (CHO-K1 cells [2]; [14]): 5.8%
- Median Fluorescence Intensity (MFI) (yellow) (CHO-K1 cells [2]; [14]): 13748
- Frequency of high fluorescing cells (CHO-K1 cells [2]; [15]): 13.0%
- Median Fluorescence Intensity (MFI) (yellow) (CHO-K1 cells [2]; [15]): 19806
- sensitivity to DHP treatment of cultures transfected with pJF2055 relative to pJF2303 (CHO-K1 cells [2]; concentration ranges for DHP giving improvement): about 10 fold
- Frequency of high fluorescing cells (CHO-K1 cells [2]; [16]): 17.3%
- Median Fluorescence Intensity (MFI) (yellow) (CHO-K1 cells [2]; [16]): 24032
- Frequency of high fluorescing cells (CHO-K1 cells [2]; [17]): 18.5%
- Median Fluorescence Intensity (MFI) (yellow) (CHO-K1 cells [2]; [17]): 22607
- Frequency of high fluorescing cells (CHO-K1 cells [2]; [18]): 31.3%
- Median Fluorescence Intensity (MFI) (yellow) (CHO-K1 cells [2]; [18]): 29703
- Frequency of high fluorescing cells (CHO-K1 cells [2]; [19]): 6.9%
- Median Fluorescence Intensity (MFI) (yellow) (CHO-K1 cells [2]; [19]): 15210
- Frequency of high fluorescing cells (CHO-K1 cells [2]; [20]): 8.7%
- Median Fluorescence Intensity (MFI) (yellow) (CHO-K1 cells [2]; [20]): 12393
- Frequency of high fluorescing cells (CHO-K1 cells [2]; [21]): 9.3%
- Median Fluorescence Intensity (MFI) (yellow) (CHO-K1 cells [2]; [21]): 9617
- Frequency of high fluorescing cells (CHO-K1 cells [2]; [22]): 3.3%
- Median Fluorescence Intensity (MFI) (yellow) (CHO-K1 cells [2]; [22]): 12080
- Frequency of high fluorescing cells (CHO-K1 cells [2]; [23]): 5.7%
- Median Fluorescence Intensity (MFI) (yellow) (CHO-K1 cells [2]; [23]): 15503
- Frequency of high fluorescing cells (CHO-K1 cells [2]; [24]): 3.2%
- Median Fluorescence Intensity (MFI) (yellow) (CHO-K1 cells [2]; [24]): 12536
- Frequency of high fluorescing cells (CHO-K1 cells [2]; [25]): 3.7%
- Median Fluorescence Intensity (MFI) (yellow) (CHO-K1 cells [2]; [25]): 14603
- Frequency of high fluorescing cells (CHO-K1 cells [2]; [26]): 14.7%
- Median Fluorescence Intensity (MFI) (yellow) (CHO-K1 cells [2]; [26]): 19163
- Frequency of high fluorescing cells (CHO-K1 cells [2]; [27]): 17.4%
- Median Fluorescence Intensity (MFI) (yellow) (CHO-K1 cells [2]; [27]): 22030
- Frequency of high fluorescing cells (CHO-K1 cells [2]; [28]): 24.5%
- Median Fluorescence Intensity (MFI) (yellow) (CHO-K1 cells [2]; [28]): 26155
- Frequency of high fluorescing cells (CHO-K1 cells [2]; [29]): 19.6%
- Median Fluorescence Intensity (MFI) (yellow) (CHO-K1 cells [2]; [29]): 23616
- Frequency of high fluorescing cells (CHO-K1 cells [2]; [30]): 15.3%
- Median Fluorescence Intensity (MFI) (yellow) (CHO-K1 cells [2]; [30]): 19951
- Frequency of high fluorescing cells (CHO-K1 cells [2]; [31]): 43.6%
- Median Fluorescence Intensity (MFI) (yellow) (CHO-K1 cells [2]; [31]): 31838
- improvement of MFI as compared to Puromycin selected cultures (CHO-K1 cells [2]; pJF2055, Table 26): up to 2.6 fold
- increase of the frequency of high fluorescing cells as compared to Puromycin selected cultures (CHO-K1 cells [2]; pJF2055, Table 26): 7.4-12.7 fold
- improvement of MFI as compared to Puromycin selected cultures (CHO-K1 cells [2]; pJF2303, Table 26): up to 2.3 fold
- increase of the frequency of high fluorescing cells as compared to Puromycin selected cultures (CHO-K1 cells [2]; pJF2303, Table 26): 5.8-9.9 fold
- improvement of MFI as compared to Puromycin selected cultures (CHO-K1 cells [2]; pJF2460, Table 28): up to 2.8 fold
- increase of the frequency of high fluorescing cells as compared to Puromycin selected cultures (CHO-K1 cells [2]; pJF2460, Table 28): up to 19 fold
